The values below come from patent US10335401B2, “Non-aromatic heterocyclic derivative having MGAT2 inhibitory activity” (Shionogi & Co., Ltd., priority 2015, dated 2019).

Structures are written as SMILES.

In general, IC50 refers to the concentration that inhibits the measured activity by half.

For this assay, the target named is recombinant human MGAT2 (Homo sapiens (Human), UniProt Q3SYC2). Put plainly: Measurement of human MGAT2 inhibitory activity. To be noted: recombinant human MGAT2 membrane fraction (Sf-9); 2-Oleoylglycerol and Oleoyl-CoA substrates; 1 hour at room temperature; Diolein detected by RapidFire Q-TOF MS. Format: biochemical. An excerpt: A full-length human MGAT2 gene to which a Flag-tag had been added at the N-terminal was inserted into pFastBac (from Invitrogen). A recombinant baculovirus was produced in accordance with the protocol for a Bac-to-Bac baculovirus expression system (produced by Invitrogen), and Sf-9 cells were infected therewith. The cells were collected and sonicated, and then the membrane fraction was collected through centrifugation.
recombinant human MGAT2, sequence (Q3SYC2 whole entry): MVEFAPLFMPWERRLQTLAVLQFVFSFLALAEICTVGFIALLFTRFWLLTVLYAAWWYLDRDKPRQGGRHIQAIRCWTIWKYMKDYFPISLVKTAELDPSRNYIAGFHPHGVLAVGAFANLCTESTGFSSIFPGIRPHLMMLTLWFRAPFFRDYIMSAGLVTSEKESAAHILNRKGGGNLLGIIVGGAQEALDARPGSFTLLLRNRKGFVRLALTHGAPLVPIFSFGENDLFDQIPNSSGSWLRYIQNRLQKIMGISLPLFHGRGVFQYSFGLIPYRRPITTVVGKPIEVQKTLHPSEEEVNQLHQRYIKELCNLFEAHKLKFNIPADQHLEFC
Solutions of the compounds of the present invention in DMSO were each aliquoted into 0.2-μL portions in a 384-well polystyrene microplate produced by Corning Incorporated, and 5 μL of an enzyme solution prepared with an assay buffer (100 mmol/L phosphate buffer (pH 7.4) containing 2 mmol/L DTT) and 5 μL of a substrate solution (100 mmol/L phosphate buffer (pH 7.4), 30 μmol/L 2-Oleoylglycerol, 10 μmol/L Oleoyl-CoA) were added thereto, and the resultant was stirred and centrifuged, and incubated in a moist chamber at room temperature for 1 hour. […] Diolein as a reaction product (P) of 2-Oleoylglycerol as the substrate and an ammonium adduct ion of the IS were detected, and the peak intensity ratio, P/IS, was calculated from the peak heights to evaluate the inhibitory activity. […] The inhibitory activity was calculated from the formula below with TIBCO Spotfire (produced by TIBCO Software Inc.): Inhibitory activity (%)=[1−{Sample−Control(−)}/{Control(+)−Control(−))}]*100 where Sample indicates a peak intensity ratio: P/IS, when the compound of the present invention was added.
In the case of `COc1ccc(C2=C(CNC(C)=O)C(=O)N[C@@](c3ccc(OCCCC(F)(F)F)cc3)(C(F)(F)F)C2)nc1` (racemic) [Compound I-11], the IC50 turned out to be 110 nM. In the case of `CS(=O)(=O)CC(=O)NCC1=C(c2ccc(C(F)F)cn2)CC(c2cnn(CCCC(F)(F)F)c2)(C(F)(F)F)NC1=O` (racemic) [Compound I-110], the IC50 was 91 nM. Consider `Cc1ccc(C2=C(CNS(C)(=O)=O)C(=O)N[C@@](c3ccc(OCCCC(F)(F)F)cc3)(C(F)(F)F)C2)cc1` [Compound I-1], for which the IC50 amounted to 21 nM. As to `Cc1ccc(C2=C(CNS(C)(=O)=O)C(=O)N[C@@](c3ccc(OCCCC(F)(F)F)cc3)(C(F)(F)F)C2)nc1` [Compound I-3], the IC50 came to 120 nM.

With `CC(=O)NCC1=C(c2ccc(C)cn2)C[C@](c2ccc(OCCCC(F)(F)F)cc2)(C(F)(F)F)NC1=O` [Compound I-4], the IC50 amounted to 32 nM. The same measure for `Cc1ccc(C2=C(CNS(N)(=O)=O)C(=O)N[C@@](c3ccc(OCCCC(F)(F)F)cc3)(C(F)(F)F)C2)nc1` [Compound I-5]: 230 nM; for `Cc1ccc(C2=C(CNC(N)=O)C(=O)N[C@@](c3ccc(OCCCC(F)(F)F)cc3)(C(F)(F)F)C2)nc1` [Compound I-6]: 120 nM. As for `COC(=O)NCC1=C(c2ccc(C)cn2)C[C@](c2ccc(OCCCC(F)(F)F)cc2)(C(F)(F)F)NC1=O` [Compound I-7], the IC50 was 150 nM. In the case of `Cc1ccc(C2=C(CNC(=O)C3CC3)C(=O)N[C@@](c3ccc(OCCCC(F)(F)F)cc3)(C(F)(F)F)C2)nc1` [Compound I-8], the IC50 stood at 13 nM. Turning to `CC(=O)NCC1=C(c2ccc(CO)cn2)C[C@](c2ccc(OCCCC(F)(F)F)cc2)(C(F)(F)F)NC1=O` [Compound I-9], the IC50 turned out to be 29 nM. The same measure for `Cc1ccc(C2=C(CNC(=O)CS(C)(=O)=O)C(=O)N[C@@](c3ccc(OCCCC(F)(F)F)cc3)(C(F)(F)F)C2)nc1` [Compound I-10]: below 4.6 nM. On to `COc1ccc(C2=C(CNC(=O)CS(C)(=O)=O)C(=O)N[C@@](c3ccc(OCCCC(F)(F)F)cc3)(C(F)(F)F)C2)nc1` [Compound I-12], for which the IC50 stood at 2.5 nM. Turning to `COc1ccc(C2=C(CNC(=O)CC(F)(F)F)C(=O)N[C@@](c3ccc(OCCCC(F)(F)F)cc3)(C(F)(F)F)C2)nc1` [Compound I-13], the IC50 stood at 3.3 nM. The same measure for `COc1ccc(C2=C(CNC(=O)C(C)C)C(=O)N[C@@](c3ccc(OCCCC(F)(F)F)cc3)(C(F)(F)F)C2)nc1` [Compound I-14]: 8 nM; for `COc1ccc(C2=C(CNC(=O)C3CCC3)C(=O)N[C@@](c3ccc(OCCCC(F)(F)F)cc3)(C(F)(F)F)C2)nc1` [Compound I-15]: 10 nM; for `COc1ccc(C2=C(CNC(=O)CC(C)(C)C)C(=O)N[C@@](c3ccc(OCCCC(F)(F)F)cc3)(C(F)(F)F)C2)nc1` [Compound I-16]: 52 nM. As for `COc1ccc(C2=C(CNC(=O)c3ccno3)C(=O)N[C@@](c3ccc(OCCCC(F)(F)F)cc3)(C(F)(F)F)C2)nc1` [Compound I-17], the figure is 7.6 nM; as for `COc1ccc(C2=C(CNS(C)(=O)=O)C(=O)N[C@@](c3ccc(OCCCC(F)(F)F)cc3)(C(F)(F)F)C2)nc1` [Compound I-18], 330 nM. Turning to `COc1ccc(C2=C(CNS(=O)(=O)CC(F)(F)F)C(=O)N[C@@](c3ccc(OCCCC(F)(F)F)cc3)(C(F)(F)F)C2)nc1` [Compound I-19], the IC50 came out at 240 nM. In the case of `COc1ccc(C2=C(CNS(=O)(=O)CC#N)C(=O)N[C@@](c3ccc(OCCCC(F)(F)F)cc3)(C(F)(F)F)C2)nc1` [Compound I-20], the IC50 was determined as 35 nM. In the case of `COc1ccc(C2=C(CNS(=O)(=O)C3CCOCC3)C(=O)N[C@@](c3ccc(OCCCC(F)(F)F)cc3)(C(F)(F)F)C2)nc1` [Compound I-22], the half-maximal inhibitory concentration (IC50) amounted to 200 nM.

Take `COc1ccc(C2=C(CNS(=O)(=O)c3ccccc3)C(=O)N[C@@](c3ccc(OCCCC(F)(F)F)cc3)(C(F)(F)F)C2)nc1` [Compound I-23]: the concentration for half-maximal inhibition (IC50) came to 750 nM.

Regarding `COc1ccc(C2=C(CNC(=O)C3CC(=O)C3)C(=O)N[C@@](c3ccc(OCCCC(F)(F)F)cc3)(C(F)(F)F)C2)nc1` [Compound I-24], the half-inhibitory concentration (IC50) stood at 40 nM.

Consider `Cc1ccc(C2=C(CNC(=O)CC(F)(F)F)C(=O)N[C@@](c3ccc(OCCCC(F)(F)F)cc3)(C(F)(F)F)C2)nc1` [Compound I-26], for which the 50% inhibitory concentration (IC50) was determined as 2.3 nM.

Take `Cc1ccc(C2=C(CNC(=O)c3ccno3)C(=O)N[C@@](c3ccc(OCCCC(F)(F)F)cc3)(C(F)(F)F)C2)nc1` [Compound I-27]: the concentration for half-maximal inhibition (IC50) came to 2.2 nM. For `Cc1ccc(C2=C(CNS(=O)(=O)CC#N)C(=O)N[C@@](c3ccc(OCCCC(F)(F)F)cc3)(C(F)(F)F)C2)nc1` [Compound I-28], the half-inhibitory concentration (IC50) is 100 nM. The same measure for `Cc1ccc(C2=C(CNC(=O)C3CS(=O)(=O)C3)C(=O)N[C@@](c3ccc(OCCCC(F)(F)F)cc3)(C(F)(F)F)C2)nc1` [Compound I-29]: 18 nM; for `Cc1ccc(C2=C(CNC(=O)CC#N)C(=O)N[C@@](c3ccc(OCCCC(F)(F)F)cc3)(C(F)(F)F)C2)nc1` [Compound I-30]: 12 nM; for `Cc1ccc(C2=C(CNC(=O)CO)C(=O)N[C@@](c3ccc(OCCCC(F)(F)F)cc3)(C(F)(F)F)C2)nc1` [Compound I-31]: 70 nM.

On to `COc1ccc(C2=C(CNC(=O)NC(C)C)C(=O)N[C@@](c3ccc(OCCCC(F)(F)F)cc3)(C(F)(F)F)C2)nc1` [Compound I-32], for which the IC50 was found to be 97 nM. For the compound `COc1ccc(C2=C(CNC(=O)OC(C)C)C(=O)N[C@@](c3ccc(OCCCC(F)(F)F)cc3)(C(F)(F)F)C2)nc1` [Compound I-33], the IC50 was found to be 340 nM. Consider `CC(=O)NCC1=C(c2ccc(C(C)C)cn2)C[C@](c2ccc(OCCCC(F)(F)F)cc2)(C(F)(F)F)NC1=O` [Compound I-35], for which the 50% inhibitory concentration (IC50) came to 18 nM. Consider `COc1ccc(C2=C(CNC(=O)C3COC3)C(=O)N[C@@](c3ccc(OCCCC(F)(F)F)cc3)(C(F)(F)F)C2)nc1` [Compound I-36], for which the IC50 came out at 53 nM.

In the case of `COc1ccc(C2=C(CNC(=O)CC#N)C(=O)N[C@@](c3ccc(OCCCC(F)(F)F)cc3)(C(F)(F)F)C2)nc1` [Compound I-37], the IC50 is 28 nM. `COc1ccc(C2=C(CNC(=O)C(C)(C)C#N)C(=O)N[C@@](c3ccc(OCCCC(F)(F)F)cc3)(C(F)(F)F)C2)nc1` [Compound I-38]: the IC50 stood at 17 nM. As to `COc1ccc(C2=C(CNC(=O)C3(C#N)CC3)C(=O)N[C@@](c3ccc(OCCCC(F)(F)F)cc3)(C(F)(F)F)C2)nc1` [Compound I-39], the IC50 is 91 nM. The same measure for `COc1ccc(C2=C(CNC(=O)CO)C(=O)N[C@@](c3ccc(OCCCC(F)(F)F)cc3)(C(F)(F)F)C2)nc1` [Compound I-40]: 43 nM; for `COc1ccc(C2=C(CNC(=O)C(C)(C)O)C(=O)N[C@@](c3ccc(OCCCC(F)(F)F)cc3)(C(F)(F)F)C2)nc1` [Compound I-41]: 75 nM. On to `CC(=O)NCC1=C(c2ccc(C(C)(C)O)cn2)C[C@](c2ccc(OCCCC(F)(F)F)cc2)(C(F)(F)F)NC1=O` [Compound I-42], for which the IC50 was determined as 10 nM. As to `CC(C)c1ccc(C2=C(CNC(=O)CS(C)(=O)=O)C(=O)N[C@@](c3ccc(OCCCC(F)(F)F)cc3)(C(F)(F)F)C2)nc1` [Compound I-43], the IC50 is below 1 nM. The same measure for `CC(C)c1ccc(C2=C(CNC(=O)C3CS(=O)(=O)C3)C(=O)N[C@@](c3ccc(OCCCC(F)(F)F)cc3)(C(F)(F)F)C2)nc1` [Compound I-44]: 9.2 nM.
